Earlier results, collected in patent US20110052683A1, “PHARMACEUTICAL PREPARATION FOR TREATING CARDIOVASCULAR DISEASE” (priority 2008, published 2011).
Blank lines part the entries; values can stand above or below the compound they belong to.

Assays:
[1] = combined administration of atorvastatin with diltiazem
[2] = combined administration of lovastatin with diltiazem
[3] = combined administration of pravastatin with verapamil

Compound: CC(C)c1c(C(=O)Nc2ccccc2)c(-c2ccccc2)c(-c2ccc(F)cc2)n1CC[C@@H](O)C[C@@H](O)CC(=O)O [atorvastatin]
side effects of combined administration [1]: occurrence of rhabdomyolysis and acute hepatitis

change in Cmax and AUC [2]: sudden increase in Cmax and AUC
Compound: CC[C@H](C)C(=O)O[C@H]1C[C@@H](C)C=C2C=C[C@H](C)[C@H](CC[C@@H]3C[C@@H](O)CC(=O)O3)[C@H]21 [lovastatin]

increase in AUC [3]: 31%
increase in Cmax [3]: 42%
Compound: CC[C@H](C)C(=O)O[C@H]1C[C@H](O)C=C2C=C[C@H](C)[C@H](CC[C@@H](O)C[C@@H](O)CC(=O)O)[C@H]21 [pravastatin]
